# PubChem BioAssay AID1996
# Settings: buffer; pH 7.4; 200.0 µM
row,Structure (SMILES),solubility kinetic [µg/mL]
1,CN(CC(=O)Nc1ccc(F)cc1)C(=O)c1ccc(OCc2cn3ccccc3n2)cc1,10.4
2,O=C(COC(=O)CNC(=O)C1CCCCC1)Nc1ccccc1OC(F)F,> 57.7
3,O=C(Nc1cccc(S(=O)(=O)NC2=NCCC2)c1)c1ccccc1F,> 54.2
4,COc1ccc(S(=O)(=O)n2cccc2)cc1,4.2
5,COc1ccc(C)cc1NC(=O)C(=O)N1CCCC1,39.1
6,COc1ccc(OC)c(NC(=O)Nc2ccc3c(c2)CCC3)c1,1.3
7,Cc1ccc(C(=O)Nc2ccc(S(=O)(=O)N3CCOCC3)cc2)cc1Br,0.5
8,Cc1nnc(N2C(=O)c3ccc(Br)cc3C2=O)s1,> 48.6
9,COC(=O)c1ccc(CO/N=C/c2ccc(OC)cc2OC)cc1,< 0.7
10,O=C(COC(=O)c1ccccc1Br)NCCC1=CCCCC1,22.5
11,CCC(C(=O)N/N=C(\C)c1cccnc1)c1ccccc1 (configuration not stated),> 42.2
12,O=C(COc1ccccc1F)Nc1ccc2[nH]c(=O)[nH]c2c1,4.5
13,Cc1cc2oc(=O)cc(CN3CCCCC3)c2cc1C,< 0.6
14,COc1ccc(N(Cc2cc3cc(C)ccc3[nH]c2=O)C(C)=O)cc1,47
15,Cc1ncc(CN2CCC(CO)(CCOc3ccccc3)CC2)s1,48.2
16,CCC(C)NC(=O)CSc1ccc(S(=O)(=O)N(C)C2CCCCC2)cn1 (configuration not stated),59.4
17,c1ccc2c(Cn3ccnc3)cccc2c1,30.2
18,Cc1sc2ncnc(NCC(O)c3ccc([N+](=O)[O-])cc3)c2c1C (configuration not stated),5.5
19,CCCc1cc(=O)[nH]c(SCC(=O)NC2CC2)n1,> 40.1
20,O=c1[nH]cnc2ccc([N+](=O)[O-])cc12,> 28.7
21,O=C(COC(=O)c1ccco1)Nc1ccc(Cl)cn1,24.8
22,CCCn1c(=O)c2ccccc2n2c(=S)[nH]nc12,> 39
23,CC(=O)Nc1ccc2c(c1)nc(C)n2Cc1ccccc1,> 41.9
24,O=C(CSc1n[nH]c(-c2ccc(Br)cc2)n1)N1CCOCC1,> 57.5

row,Structure (SMILES),solubility kinetic [µg/mL]
1,Cc1cc(C)n2nc(SCC(=O)N3CCCCC3C)nc2n1 (configuration not stated),> 47.9
2,OC(CNCCNc1ncccc1C(F)(F)F)COc1ccc(F)cc1 (configuration not stated),50.9
3,Cc1ccc2cc(CNCCc3ccccc3C)c(=O)[nH]c2c1,40.7
4,Cc1cc(Cl)c(S(=O)(=O)N2CCCC2)cc1OCC(N)=O,> 49.9
5,CC(=O)Nc1ccc(-c2nc3ccc(NC(C)=O)cc3o2)cc1,2.2
6,COc1ccc(C(=O)OCC(=O)Nc2ccc(Cl)cn2)cc1,1.2
7,COc1ccc(C(=O)N[C@H](C(=O)NCc2ccc(C)cc2)C(C)C)cc1,1.1
8,CNC(=O)c1csc(-c2cccs2)n1,33.3
9,O=C(O)Cc1ccc2c(c1)N(S(=O)(=O)c1cccs1)CC(C(=O)O)O2 (configuration not stated),> 57.5
10,COc1ccc(C)cc1NC(=S)Nc1ccccc1SC,10.5
11,O=C1/C(=C\c2ccc(O)c(O)c2)SC(=S)N1Cc1ccccc1,4
12,Cc1ccc2sc(NC(=O)C3CC3)nc2c1C,1.3
13,O=C(CCc1ccc(S(=O)(=O)N2CCOCC2)cc1)Nc1c(F)cccc1F,> 61.6
14,N#CCC(=O)Nc1ccc(C(=O)Nc2cccnc2)cc1,> 42
15,NC(=O)c1ccsc1NC(=O)CSc1ncnc2sccc12,6
16,CC(C)OP(=O)(c1ccc(N(C)C)cc1)C(O)c1ccc(N(C)C)cc1 (configuration not stated),> 56.5
17,CN(CC(=O)Nc1cccc(F)c1)C(=O)c1ccc(-c2ccc(Cl)cc2)o1,5.6
18,O=C(Nc1cccc(F)c1)c1ccc2ncsc2c1,39.8
19,CC1CCCN(C(=O)C2CCN(C(=O)Nc3ccccc3)CC2)C1 (configuration not stated),> 49.4
20,CNC(=O)COC(=O)c1ccccc1NC(=O)c1ccco1,> 45.3
21,CC(=O)Nc1ccc(S(=O)(=O)NC(C(=O)O)C(C)O)cc1 (configuration not stated),> 47.4
22,O=C(CSc1ccccc1C(=O)O)NC1CCCCCC1,> 46.1
23,CC(C)(C)Nc1nc(Cl)nc(NC2CCCCC2)n1,0.2
